These results are taken from ChEMBL document CHEMBL1144878, “N-(omega-(4-(2-methoxyphenyl)piperazin-1-yl)alkyl)carboxamides as dopamine D2 and D3 receptor ligands” (J Med Chem, 2003).

The target in one assay is D(3) dopamine receptor (Homo sapiens, UniProt P35462). In words: biochemical.
Another assay concerns the target D(2) dopamine receptor (Homo sapiens, UniProt P14416). The experiment in a line: biochemical.

SMILES strings stand for the structures. pKi: −log10 of the molar value.

D(2) dopamine receptor, sequence (P14416 whole entry): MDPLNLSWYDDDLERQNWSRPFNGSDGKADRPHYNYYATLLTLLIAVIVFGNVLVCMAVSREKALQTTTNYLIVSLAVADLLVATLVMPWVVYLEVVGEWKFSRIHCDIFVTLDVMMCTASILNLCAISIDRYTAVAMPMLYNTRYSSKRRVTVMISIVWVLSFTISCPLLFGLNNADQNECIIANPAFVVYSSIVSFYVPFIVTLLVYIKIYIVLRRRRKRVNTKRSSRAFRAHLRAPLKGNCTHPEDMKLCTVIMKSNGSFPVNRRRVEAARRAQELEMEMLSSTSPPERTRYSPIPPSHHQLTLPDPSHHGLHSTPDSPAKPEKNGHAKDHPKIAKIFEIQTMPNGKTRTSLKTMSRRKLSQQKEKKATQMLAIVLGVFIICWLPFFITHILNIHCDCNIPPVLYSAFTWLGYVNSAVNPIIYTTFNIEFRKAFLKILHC
D(3) dopamine receptor, sequence (P35462 whole entry): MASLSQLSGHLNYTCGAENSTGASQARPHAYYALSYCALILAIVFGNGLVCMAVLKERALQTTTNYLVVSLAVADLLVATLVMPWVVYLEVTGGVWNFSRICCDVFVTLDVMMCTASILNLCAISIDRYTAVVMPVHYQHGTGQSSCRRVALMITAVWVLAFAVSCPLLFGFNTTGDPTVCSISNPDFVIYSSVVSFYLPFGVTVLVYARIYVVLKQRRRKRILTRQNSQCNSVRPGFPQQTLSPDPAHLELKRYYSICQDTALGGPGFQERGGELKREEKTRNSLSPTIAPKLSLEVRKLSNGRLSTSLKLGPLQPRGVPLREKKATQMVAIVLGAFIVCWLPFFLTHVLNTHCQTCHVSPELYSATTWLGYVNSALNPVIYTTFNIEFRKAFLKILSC
Description for D(2) dopamine receptor: Binding affinity for human dopamine receptor D2 by displacing [125I]iodosulpiride expressed in CHO cells
Description for D(3) dopamine receptor: Binding affinity for human dopamine receptor D3 by displacing [125I]iodosulpiride expressed in CHO cells

Regarding `COc1ccccc1N1CCN(CCCCNC(=O)/C=C/c2cccc3c2OCO3)CC1`, the negative-log Ki (pKi) at D(3) dopamine receptor is 9.26; at D(2) dopamine receptor it was 8.10.
On the same counts, the results for `COc1ccccc1N1CCN(CCCCNC(=O)c2coc3ccccc3c2=O)CC1` are 8.48 and 7.33.
`COc1ccc(/C=C/C(=O)NCCCCN2CCN(c3ccccc3OC)CC2)cc1`: the results for the pKi on D(3) dopamine receptor and on D(2) dopamine receptor were 9.42 and 7.92, respectively.
On the same counts, the results for `COc1ccccc1N1CCN(CCCCNC(=O)/C=C/c2ccc(OCc3ccccc3)cc2)CC1` are 7.71 and 7.49.
For `COc1ccccc1N1CCN(CCCCNC(=O)/C=C/c2ccc(C#N)cc2)CC1`, in that order: 9.34 and 8.00.
For `COc1ccccc1N1CCN(CCCCNC(=O)/C=C/c2cccc(C(F)(F)F)c2)CC1`, in that order: 8.39 and 7.30.
Turning to `COc1ccccc1N1CCN(CCCCNC(=O)c2ccccc2I)CC1`, the pKi was 8.11 at D(3) dopamine receptor and 7.82 at D(2) dopamine receptor.
On the same counts, the results for `COc1ccccc1/C=C/C(=O)NCCCCN1CCN(c2ccccc2OC)CC1` are 9.25 and 7.85.
For `COc1ccccc1N1CCN(CCCCNC(=O)/C=C/c2ccc(C(C)(C)C)cc2)CC1`, in that order: 7.99 and 6.89.
On the same counts, the results for `COc1ccccc1N1CCN(C2CC3CC(NC(=O)c4ccc5ccccc5c4)CC3C2)CC1` (centres undefined) are 7.43 and 6.75.
In the case of `COc1ccccc1N1CCN(CCCCNC(=O)/C=C/c2ccsc2)CC1`, the pKi on D(3) dopamine receptor was 9.19; at D(2) dopamine receptor, 7.89.
For `COc1ccccc1N1CCN(Cc2ccccc2CNC(=O)/C=C/c2ccccc2)CC1`, in that order: 6.49 and 7.74.
On the same counts, the results for `COc1ccccc1N1CCN(Cc2cccc(CNC(=O)c3ccc4ccccc4c3)c2)CC1` are 7.00 and 7.35.
For `COc1ccccc1N1CCN(CCCCNC(=O)/C=C/c2ccc(I)cc2)CC1`, in that order: 9.30 and 7.12.
On to `COc1ccccc1N1CCN(CCCCNC(=O)/C=C/c2ccc([N+](=O)[O-])cc2)CC1`, for which the figures for the negative-log Ki (pKi) at D(3) dopamine receptor and on D(2) dopamine receptor were 9.13 and 7.85, respectively.
As to `COc1ccccc1N1CCN(Cc2ccc(CNC(=O)c3ccc4ccccc4c3)cc2)CC1`, the pKi at D(3) dopamine receptor is 7.40; on D(2) dopamine receptor, 6.70.
`COc1ccccc1N1CCN(CCCCNC(=O)c2nccc3ccccc23)CC1`: the negative logarithm of the Ki (pKi) on D(3) dopamine receptor was 8.02; at D(2) dopamine receptor it was 7.68.
For `COc1ccccc1N1CCN(CCCCNC(=O)/C=C/c2cccc(I)c2)CC1`, in that order: 8.92 and 6.79.
On the same counts, the results for `COc1ccccc1N1CCN(C2CC3CC(NC4CC5CC(N6CCN(c7ccccc7OC)CC6)CC5C4)CC3C2)CC1` (centres undefined) are 6.45 and 6.99.
For `COc1ccccc1N1CCN(CCCCN2C(=O)c3cccc4cccc(c34)C2=O)CC1`, in that order: 7.54 and 7.40.
On to `COc1ccccc1N1CCN(CCCCNC(=O)c2cccc(I)c2)CC1`, for which the pKi at D(3) dopamine receptor is 8.04; on D(2) dopamine receptor it was 7.17.
As for `COc1ccccc1N1CCN(CCCCNC(=O)c2ccc(C(C)(C)C)cc2)CC1`, the pKi is 8.10 on D(3) dopamine receptor and 7.58 on D(2) dopamine receptor.
For `COc1ccccc1N1CCN(CCCCNC(=O)c2ccc(Cl)cc2)CC1`, in that order: 9.30 and 7.71.
On the same counts, the results for `COc1ccccc1N1CCN(CCCCN2C(=O)c3ccccc3C2=O)CC1` are 7.42 and 7.30.
For the compound `COc1ccccc1N1CCN(CCCCNC(=O)c2ccc(-c3ccc(Cl)cc3)o2)CC1`, the pKi was 8.20 at D(3) dopamine receptor and 6.70 at D(2) dopamine receptor.
Take `COc1ccccc1N1CCN(Cc2ccccc2CNC(=O)c2ccc3ccccc3c2)CC1`: the negative logarithm of the Ki (pKi) at D(3) dopamine receptor is 6.12; at D(2) dopamine receptor it was 7.55.
For `COc1ccccc1N1CCN(CCCCNC(=O)c2ccc3ccccc3n2)CC1`, at D(3) dopamine receptor, the pKi is 8.18.
Still for that read-out and setting: as for `COc1ccccc1N1CCN(CCCCNC(=O)c2ccc(-c3ccccc3)cc2)CC1`, the figure is 8.55.

The pKi is −log10 of the Ki, conventionally taken in molar units.
